Measurements: patent US11661581B2, “Use of CDK inhibitors to enhance growth and self-renewal of progenitor cells” (University of Massachusetts, priority 2017, dated 2023)
Entries after “also recorded” stand apart in the source; their conditions may differ.

Assays:
[1] = test system: mouse bone marrow CFU-e progenitors; experiment: CFU-e colony formation in semi-solid medium from mouse bone marrow cultures; type: cell-based; settings: for increase in absolute CFU-e numbers relative to control cultures: day 5 of culture
Description: (17B) Mouse bone marrow erythroid progenitors, treated as described in A, but plated on day 5 of the culture in semi-solid medium, CFU-e colonies scored 72 hours later.

[2] = test system: mouse bone marrow erythroid progenitors; experiment: Mouse adult bone marrow erythroid self-renewal culture, amplification of cell number; type: cell-based; settings: for growth of mouse bone marrow erythroid progenitors (in words): drug at five times its respective IC50, two independent experiments
Description: (§1) Adult bone marrow mononuclear cells (StemCell Technologies) (A), mouse fetal liver (B) and mouse adult bone marrow (C-D), were cultured in the presence of Dex, Epo, SCF and IGF-1. Dex slows down and delays the transition from self-renewal to differentiation of early CFU-e progenitors, leading to their numerical amplification.
The doses chosen for all these inhibitors were approximately 5 times the IC50 for each drug.

[3] = test system: mouse fetal liver erythroid cells; experiment: Mouse fetal liver erythroid self-renewal culture (Example 2), amplification of cell number; type: cell-based; settings: Dex, Epo, SCF, IGF-1
Description: as §1
(§2) We cultured hematopoietic tissue cells from either mouse adult bone marrow, mouse fetal liver (mid-gestation, embryonic day 13.5), or human adult bone marrow (StemCell Technologies, Vancouver, Canada), under conditions that facilitate self-renewal of colony-forming-unit-erythroid (CFU-e), in which the following are added to the culture medium: erythropoietin (Epo, 2 Units/ml), Stem Cell Factor (SCF, 100 ng/ml), Insulin-like Growth Factor 1 (IGF1, 40 ng/ml) and dexamethasone (Dex, 1 μM). Control cultures contained no other specialized additives; parallel cultures had, in addition, the CDK inhibitor roscovitine (1, 5 or 10 μM) (Pippin et al., J Clin Invest 100, 2512-2520 (1997); Meijer et al., European Journal of Biochemistry 243, 527-536 (1997)). […]

[4] = test system: human bone marrow self-renewing cultures; experiment: Flow cytometry of human bone marrow self-renewing cultures; type: cell-based; settings: day 10 of culture
Text: (18B) Flow cytometric analysis of human bone marrow self-renewing cultures, on day 10 of culture.

[5] = test system: p57KIP2-deficient fetal liver CFUe; experiment: Dex-dependent CFUe self-renewal (expansion) culture of p57KIP2-deficient fetal liver cells; type: cell-based, mouse; settings: self-renewal medium Epo+Dex; roscovitine 0.5 μM
Description: (§3) To isolate Ter119-negative cells, fresh fetal liver cells were stained with biotin-conjugated anti-Ter119 (BD Biosciences 553672) at 1:100, followed by EasySep magnetic separation (StemCell Technologies). Cells were grown in Stem-Pro-34 serum free medium supplemented with nutrient supplement (Invitrogen), 1 μM dexamethasone (Sigma), 100 ng/ml SCF (PeproTech), 40 ng/ml IGF1 (PeproTech), 2 U/ml Epo, 100 U/ml penicillin/streptomycin (Invitrogen) and 2 mM L-glutamine (Invitrogen). Cells were maintained at 2×10^6 cells/ml, and supplemented daily with fresh medium and growth factors. To test the effect of roscovitine on p57^KIP2−/− fetal liver cells in expansion culture, cells were grown and maintained as described above with the additional supplemented daily of 0.5 μM roscovitine (EMD Millipore 557360). To switch to differentiation medium, after being maintained in expansion medium for 4 to 5 days, Ter119-negative cells were isolated again using EasySep magnetic beads (StemCell Technologies). Cells were then transferred to IMDM (L-glutamine, 25 mM HEPES) (Gibco), 20% fetal calf serum (Gibco, HyClone), 100 U/ml penicillin/streptomycin (Invitrogen), […] β-mercapthoethanol (Sigma) and 2 U/ml Epo.
We also investigated whether CDK inhibition could underlie the essential role that p57^KIP2 plays in maintaining the viability of self-renewing CFUe.

[6] = test system: human adult bone marrow mononuclear cells (erythroid progenitors); experiment: Human bone marrow erythroid self-renewal culture, amplification of cell number; type: cell-based; settings: peak on day 16; pooled from two independent experiments; roscovitine concentration not stated (1, 5 or 10 μM)
Description: as §1, §2

[7] = test system: human bone-marrow CFU-e progenitors; experiment: CFU-e colony formation in semi-solid medium from human bone marrow cultures; settings: cells taken on day 11 of culture
Description: (17A) Human bone-marrow erythroid progenitors were amplified in cultures as in FIG. 1A. On day 11 of culture, cells were plated in semi-solid methylcellulose medium under differentiation conditions (in the presence of Epo and in the absence of Dex or SCF). CFU-e colonies were scored at 72 hours using diaminobenzidine staining to identify hemoglobinized cells. The absolute number of CFU-e progenitors obtained from the same initial starting number in each culture is shown. All statistically significant differences are noted (two-tailed t test, unequal variance).

[8] = test system: p57KIP2-/- CFUe; experiment: CFUe colony potential of p57KIP2-/- cells from Dex self-renewal cultures; settings: day 11 of culture, 10^5 cells per dish, colonies scored 72 hours after plating
Description: (12B) Analysis of CFUe potential in Dex-dependent self-renewal cultures of p57^KIP2−/− cells treated with roscovitine (See FIG. 5I). On day 11 of culture, cells amplified in the presence or absence of roscovitine were plated at 10^5 cells per dish in Epo-containing semi-solid medium. The number of CFUe colonies formed per dish was scored 72 hours following plating.

[9] = test system: wild-type CFU-e; experiment: Dex-dependent CFUe self-renewal (expansion) culture of wild-type fetal liver cells; type: cell-based, mouse
Description: as §3
In three independent experiments, wild-type cells growing in roscovitine were amplified an average of 1.92±0.43 fold more than wild-type cells without treatment.

[10] = test system: mouse bone marrow self-renewing cultures; experiment: Flow cytometry and BrdU cell cycle analysis of mouse bone marrow self-renewing cultures; type: cell-based
Description: (18A) Flow cytometric analysis of mouse bone marrow self-renewing cultures, on day 6 of culture. […] The overall viability of cells in roscovitine-treated cultures was increased (not shown). Bottom panels: corresponding cell cycle analysis of cells in each culture. Cells were pulsed with BrdU at 33 μM for 25 min before analysis.
We examined cells in the self-renewing cultures using flow-cytometry. Cell surface markers CD71 and Ter119 denote the differentiation stage of erythroid progenitors and precursors in mouse hematopoietic tissue^81,41. […] By contrast, control cultures contained a substantial fraction (35%) of Ter119+ cells.

CC(=O)c1c(C)c2cnc(Nc3ccc(N4CCNCC4)cn3)nc2n(C2CCCC2)c1=O [PD0332991]
absolute number of CFU-e progenitors by colony formation assay versus control ([1]; 0.1 μM): either no significant effect or an inhibitory effect | amplification of erythroid cell number versus control cultures ([2]; 0.1 μM): either no significant effect or an inhibitory effect | growth of mouse bone marrow erythroid progenitors (in words) [2]: growth inhibition

NS(=O)(=O)c1ccc(N/N=C2\C(=O)Nc3ccc(Br)cc32)cc1 [SC-221409]
absolute number of CFU-e progenitors by colony formation assay versus control ([1]; 0.5 μM): significant increase | amplification of erythroid cell number versus control cultures ([2]; 0.5 μM): significant increase | growth of mouse bone marrow erythroid progenitors (in words) [2]: improved growth

CC[C@H](CO)Nc1nc(NCc2ccccc2)c2ncn(C(C)C)c2n1 [roscovitine]
amplification of erythroid cell number in mouse fetal liver cultures (in words) [3]: increased amplification; also recorded: significantly higher cell numbers | cells expressing glycophorin A (in words) [4]: fewer cells are glycophorin A positive | cells expressing glycophorin A (in words) ([4]; listed as Roscovitine): lower number | Dex-dependent self-renewal and expansion of p57KIP2-deficient CFUe [5]: rescued self-renewal; also recorded: rescue the self-renewal; also recorded: successfully rescued | peak amplification of cell number [6]: 9 fold | increase in absolute number of CFU-e progenitors over control cultures ([7]; 1 μM): 3.9 fold | increase in absolute number of CFU-e progenitors relative to control ([7]; 5 μM): 4.5 fold | increase in absolute CFU-e numbers relative to control cultures ([1]; 1 μM): 62% | increase in absolute CFU-e numbers relative to control cultures ([1]; 5 μM): 40% | growth of mouse bone marrow erythroid progenitors (in words) [2]: improved growth | cell numbers in mouse adult bone marrow cultures (in words) ([2]; roscovitine 1, 5 or 10 μM): significantly higher cell numbers | CFUe colony forming potential of treated p57KIP2-/- cells versus untreated cells [8]: retained the same potential; also recorded: preserved CFUe colony potential | amplification of wild-type CFU-e (in words) ([9]; Dex cultures): enhanced the amplification; also recorded: also enhanced | amplification of wild-type cells relative to wild-type cells without treatment ([9]; average of three independent experiments): 1.92±0.43 fold | progenitors from wild-type cells relative to absence of drug ([9]; period of 7-9 days): 2 fold | normal expansion of CFUe cultures derived from wild-type littermates ([9]; roscovitine 0.5 μM): little effect | number of S phase cells (in words) ([10]; BrdU 33 μM pulse for 25 min): fewer S phase cells | speed of S phase, rate of BrdU incorporation (BrdU MFI in S phase gate) ([10]; BrdU 33 μM pulse for 25 min): substantially slower | speed of S phase, rate of BrdU incorporation (BrdU MFI in S phase gate) ([10]; BrdU 33 μM pulse for 25 min, listed as Roscovitine): slower S phase | terminally-differentiating Ter119+ erythroblasts compared with control (in words) ([10]; day 6 of culture): relative absence | overall viability of cells in culture ([10]; day 6 of culture, data not shown): increased | cells in the culture expressing Ter119 ([10]; mouse bone marrow cultures, roscovitine-treated): 6%
